Measured values taken from US9321790B2, “Pyrimidinone derivatives as antimalarial agents” (SANOFI, priority 2012, dated 2016).

Experiments:
[1] = molecular target: human PI3Kα (Homo sapiens (Human), UniProt P42336); assay: Human PI3Kα activity test (luciferin/luciferase ATP consumption, KinaseGlo); type: biochemical; details: PI3Kα (p110α/p85α), 50 μM PIP2, 2 μM ATP, 90 minutes; read-out: IC50 Human PI3Kα
Experimental: The test uses a luciferin/luciferase system to measure the concentration of ATP and its consumption during the enzymatic reaction.
After 90 minutes, the reaction is quenched by adding 20 μl/well of KinaseGlo reagent (Promega V6713). After 10 minutes in the dark, the luminescence is read using a PHERAStar microplate reader (reading at 0.8 sec/well).

[2] = tested on: Plasmodium falciparum (strain NF54); assay: Antimalarial activity test: growth of Plasmodium falciparum in infected human erythrocytes, 3H-hypoxanthine incorporation; type: cell-based; details: strain NF54 sensitive to chloroquine, 72 h total incubation
Experimental: The compounds according to the invention underwent pharmacological trials to determine their inhibitory effect on the growth of Plasmodium falciparum (strain NF54 sensitive to inhibition with chloroquine) in an in vitro test using infected human erythrocytes. The growth of the parasites is measured via the incorporation of tritiated hypoxanthine compared with the incorporation in the absence of drug. The tests are performed in 96-well microplates (Falcon™ 96-well microtiter plates, ref. No. 353072) in RPMI 1640 solutions (10.44 g/l) (without hypoxanthine) with HEPES (5.94 g/l), NaHCO3 (2.1 g/l), neomycin ([…])+AlbumaxR II (5 g/l) supplemented with human erythrocytes with a final hematocrit of 1.25% and a final parasitemia of 0.15%.
The stock solution of the compounds is prepared at 10 mg/mL in DMSO. For the test, fresh solutions at the desired concentrations are prepared in RPMI medium. For the test, 100 μl of compound are mixed with 100 μl of infected blood. For the determination of the IC50 values, the compounds are tested in twofold serial dilution.
The plates are incubated at 37° C. under a humid atmosphere with 93% N2, 4% CO2 and 3% O2. After 48 hours, 50 μl of ^3H-hypoxanthine (=0.5 μCi) in RPMI medium are added to each well and incubation is continued for a further 24 hours. Next, the plates are washed with distilled water and the cell lyzate is transferred onto fiberglass filters. The filters are dried and the radioactivity is determined by liquid scintillation. The results in cpm are converted into percentages of inhibition. The inhibitory activity is given by the concentration that inhibits 50% of the growth of the parasite relative to a control without compound.

[3] = Plasmodium falciparum, Erythrocyte

Chain of human PI3Kα (P42336 whole entry): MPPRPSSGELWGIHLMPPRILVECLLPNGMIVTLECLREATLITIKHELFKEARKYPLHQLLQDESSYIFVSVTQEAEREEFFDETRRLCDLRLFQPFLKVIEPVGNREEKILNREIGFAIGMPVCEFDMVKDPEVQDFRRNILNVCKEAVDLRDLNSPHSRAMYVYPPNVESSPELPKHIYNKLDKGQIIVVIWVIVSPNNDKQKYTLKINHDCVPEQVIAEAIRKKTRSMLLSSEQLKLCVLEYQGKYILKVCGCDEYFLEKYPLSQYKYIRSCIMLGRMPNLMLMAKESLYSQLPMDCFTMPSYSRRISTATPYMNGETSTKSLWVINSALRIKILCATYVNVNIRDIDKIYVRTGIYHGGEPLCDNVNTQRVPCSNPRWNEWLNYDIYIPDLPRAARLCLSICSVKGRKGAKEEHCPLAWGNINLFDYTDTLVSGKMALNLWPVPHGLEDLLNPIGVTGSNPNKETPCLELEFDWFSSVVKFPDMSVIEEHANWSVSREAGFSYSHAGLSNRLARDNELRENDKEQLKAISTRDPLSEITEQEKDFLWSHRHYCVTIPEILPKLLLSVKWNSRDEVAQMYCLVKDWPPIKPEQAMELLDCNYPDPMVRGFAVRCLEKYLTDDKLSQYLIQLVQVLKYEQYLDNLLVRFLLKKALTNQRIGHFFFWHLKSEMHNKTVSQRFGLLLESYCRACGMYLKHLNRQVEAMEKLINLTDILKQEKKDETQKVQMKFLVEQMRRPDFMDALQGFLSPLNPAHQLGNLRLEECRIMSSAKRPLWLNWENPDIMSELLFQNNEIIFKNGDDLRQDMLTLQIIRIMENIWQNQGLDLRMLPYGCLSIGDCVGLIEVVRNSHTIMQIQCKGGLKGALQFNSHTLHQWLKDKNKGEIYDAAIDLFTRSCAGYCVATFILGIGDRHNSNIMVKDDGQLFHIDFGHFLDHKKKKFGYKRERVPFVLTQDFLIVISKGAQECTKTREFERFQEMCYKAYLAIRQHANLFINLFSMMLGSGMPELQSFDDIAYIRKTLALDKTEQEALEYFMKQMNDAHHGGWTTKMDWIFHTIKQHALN
Chain of human PI3Kα (P27986 whole entry partner): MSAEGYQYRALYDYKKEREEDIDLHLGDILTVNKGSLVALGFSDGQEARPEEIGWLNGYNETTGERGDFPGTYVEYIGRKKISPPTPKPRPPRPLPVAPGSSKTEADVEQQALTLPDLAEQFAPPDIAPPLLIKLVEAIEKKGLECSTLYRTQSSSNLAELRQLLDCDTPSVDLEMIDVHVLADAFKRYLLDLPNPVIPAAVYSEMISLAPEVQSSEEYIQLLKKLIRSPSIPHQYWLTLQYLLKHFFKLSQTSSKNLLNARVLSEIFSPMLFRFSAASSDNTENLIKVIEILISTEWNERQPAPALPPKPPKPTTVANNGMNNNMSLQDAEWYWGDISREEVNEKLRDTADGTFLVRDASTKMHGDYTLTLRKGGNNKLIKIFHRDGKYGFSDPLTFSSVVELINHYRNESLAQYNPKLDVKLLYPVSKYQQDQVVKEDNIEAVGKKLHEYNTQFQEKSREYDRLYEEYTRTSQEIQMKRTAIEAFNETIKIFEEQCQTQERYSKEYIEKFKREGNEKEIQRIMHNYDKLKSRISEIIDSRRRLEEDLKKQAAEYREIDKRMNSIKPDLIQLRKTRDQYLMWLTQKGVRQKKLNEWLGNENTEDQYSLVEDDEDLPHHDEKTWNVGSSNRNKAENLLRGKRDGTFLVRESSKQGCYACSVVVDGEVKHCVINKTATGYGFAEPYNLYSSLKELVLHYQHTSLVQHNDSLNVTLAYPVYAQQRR

Q: What does the source list for Cc1cc(C(=O)CN2c3nc(N4C[C@@H]5C[C@H]4CO5)cc(=O)n3CC[C@H]2C(F)(F)F)cnc1N [Compound 31, (8S)-9-[2-(6-Amino-5-methylpyrid-3-yl)-2-oxoethyl]-2-(1S,4S)-2-oxa-5-azabicyclo[2.2.1]hept-5-yl-8-trifluoromethyl-6,7,8,9-tetrahydropyrimido[1,2-a]pyrimidin-4-one]?
A: IC50 [1]: 6350 nM; IC50 [2, 3]: 75 nM

Q: C[C@@]1(C(F)(F)F)Cn2c(nc(N3C[C@@H]4C[C@H]3CO4)cc2=O)N1CCc1ccc(N)cc1 [Compound 32, 1-[2-(4-Aminophenyl)ethyl]-2-methyl-7-(1S,4S)-2-oxa-5-azabicyclo[2.2.1]hept-5-yl-2-((S)-trifluoromethyl)-2,3-dihydro-1H-imidazo[1,2-a]pyrimidin-5-one] was tested. Which IC50 [1] did it give?
A: 3700 nM

Q: And the IC50 [2]?
A: 4 nM

Q: What does the source list for O=C(CN1c2nc(N3C[C@@H]4C[C@H]3CO4)cc(=O)n2CC[C@H]1C(F)(F)F)c1ccc(C(F)(F)F)nc1 [Compound 33, (8S)-2-(1S,4S)-2-Oxa-5-azabicyclo[2.2.1]hept-5-yl-9-[2-oxo-2-(6-trifluoromethylpyrid-3-yl)ethyl]-8-trifluoromethyl-6,7,8,9-tetrahydropyrimido[1,2-a]pyrimidin-4-one]?
A: IC50 [1]: > 10000 nM; IC50 [2]: 4000 nM

Q: What does the source list for CN(CCO)c1ccc(C(=O)CN2c3nc(N4C[C@@H]5C[C@H]4CO5)cc(=O)n3CC[C@H]2C(F)(F)F)cn1 [Compound 34, (8S)-9-(2-{6-[(2-Hydroxyethyl)methylamino]pyrid-3-yl}-2-oxoethyl)-2-(1S,4S)-2-oxa-5-azabicyclo[2.2.1]hept-5-yl-8-trifluoromethyl-6,7,8,9-tetrahydropyrimido[1,2-a]pyrimidin-4-one]?
A: IC50 [1]: > 10000 nM; IC50 [2, 3]: > 200 nM

Q: Which IC50 [1] does the source give for CCOc1ccc(C(=O)CN2c3nc(N4C[C@@H]5C[C@H]4CO5)cc(=O)n3CC[C@H]2C(F)(F)F)cn1 [Compound 35, (8S)-9-[2-(6-Ethoxypyrid-3-yl)-2-oxoethyl]-2-(1S,4S)-2-oxa-5-azabicyclo[2.2.1]hept-5-yl-8-trifluoromethyl-6,7,8,9-tetrahydropyrimido[1,2-a]pyrimidin-4-one] here?
A: > 10000 nM

Q: And the IC50 [2, 3]?
A: > 210 nM

Q: How did the IC50 [1] turn out when Cc1c(C(=O)CN2c3nc(N4C[C@@H]5C[C@H]4CO5)cc(=O)n3CC[C@H]2C(F)(F)F)cnc(N)c1C [Compound 36, (8S)-9-[2-(6-Amino-4,5-dimethylpyrid-3-yl)-2-oxoethyl]-2-(1S,4S)-2-oxa-5-azabicyclo[2.2.1]hept-5-yl-8-trifluoromethyl-6,7,8,9-tetrahydropyrimido[1,2-a]pyrimidin-4-one] was run?
A: > 10000 nM

Q: And the IC50 [2, 3]?
A: 240 nM

Q: O=C(CN1c2nc(N3C[C@@H]4C[C@H]3CO4)cc(=O)n2CC[C@H]1C(F)(F)F)c1ccc(OC(F)F)cc1 [Compound 37, (S)-9-[2-(4-Difluoromethoxyphenyl)-2-oxoethyl]-2-(1S,4S)-2-oxa-5-azabicyclo[2.2.1]hept-5-yl-8-trifluoromethyl-6,7,8,9-tetrahydropyrimido[1,2-a]pyrimidin-4-one] was tested. Which IC50 [1] did it give?
A: > 10000 nM

Q: What about the IC50 [2, 3] of the same molecule?
A: 230 nM

Q: How did the IC50 [1] turn out when O=C(CN1c2nc(N3C[C@@H]4C[C@H]3CO4)cc(=O)n2CC[C@H]1C(F)(F)F)c1cnc2c(c1)OCCN2 [Compound 38, (8S)-9-[2-(3,4-dihydro-2H-pyrido[3,2-b][1,4]oxazin-7-yl)-2-oxoethyl]-2-(1S,4S)-2-oxa-5-azabicyclo[2.2.1]hept-5-yl-8-trifluoromethyl-6,7,8,9-tetrahydropyrimido[1,2-a]pyrimidin-4-one] was run?
A: 5770 nM

Q: What about the IC50 [2, 3] of the same molecule?
A: 140 nM

Q: How did the IC50 [1] turn out when Cc1ncoc1C(=O)CN1c2nc(N3C[C@@H]4C[C@H]3CO4)cc(=O)n2CC[C@H]1C(F)(F)F [Compound 39, (8S)-9-[2-(4-Methyloxazol-5-yl)-2-oxoethyl]-2-(1S,4S)-2-oxa-5-azabicyclo[2.2.1]hept-5-yl-8-trifluoromethyl-6,7,8,9-tetrahydropyrimido[1,2-a]pyrimidin-4-one] was run?
A: > 10000 nM

Q: What about the IC50 [2, 3] of the same molecule?
A: 98 nM

Q: How did the IC50 [1] turn out when O=C(CN1c2nc(N3C[C@@H]4C[C@H]3CO4)cc(=O)n2CC[C@H]1C(F)(F)F)c1ccc(F)c(F)c1 [Compound 40, (S)-9-[2-(3,4-Difluorophenyl)-2-oxoethyl]-2-(1S,4S)-2-oxa-5-azabicyclo[2.2.1]hept-5-yl-8-trifluoromethyl-6,7,8,9-tetrahydropyrimido[1,2-a]pyrimidin-4-one] was run?
A: > 10000 nM

Q: And the IC50 [2, 3]?
A: 80 nM

Q: What does the source list for O=C(CN1c2nc(N3C[C@@H]4C[C@H]3CO4)cc(=O)n2CC[C@H]1C(F)(F)F)c1ccc(N2CCOCC2)cc1 [Compound 41, (8S)-9-[2-(4-Morpholin-4-ylphenyl)-2-oxoethyl]-2-(1S,4S)-2-oxa-5-azabicyclo[2.2.1]hept-5-yl-8-trifluoromethyl-6,7,8,9-tetrahydropyrimido[1,2-a]pyrimidin-4-one]?
A: IC50 [1]: 4200 nM; IC50 [2, 3]: 930 nM

Q: With N#Cc1ccc(C(=O)CN2c3nc(N4C[C@@H]5C[C@H]4CO5)cc(=O)n3CC[C@H]2C(F)(F)F)cc1 [Compound 42, 4-[2-((S)-8-(1S,4S)-2-Oxa-5-azabicyclo[2.2.1]hept-5-yl-6-oxo-2-trifluoromethyl-3,4-dihydro-2H,6H-pyrimido[1,2-a]pyrimidin-1-yl)acetyl]benzonitrile] as the molecule, how does the IC50 [1] read?
A: > 10000 nM

Q: And the IC50 [2]?
A: 80 nM

Q: Which IC50 [1] does the source give for Cc1ncsc1C(=O)CN1c2nc(N3C[C@@H]4C[C@H]3CO4)cc(=O)n2CC[C@H]1C(F)(F)F [Compound 43, (8S)-9-[2-(4-methylthiazol-5-yl)-2-oxoethyl]-2-(1S,4S)-2-oxa-5-azabicyclo[2.2.1]hept-5-yl-8-trifluoromethyl-6,7,8,9-tetrahydropyrimido[1,2-a]pyrimidin-4-one] here?
A: > 10000 nM

Q: What about the IC50 [2, 3] of the same molecule?
A: 42 nM

Q: What does the source list for O=C(CN1c2nc(N3C[C@@H]4C[C@H]3CO4)cc(=O)n2CC[C@H]1C(F)(F)F)c1cncc(Cl)c1 [Compound 44, (8S)-9-[2-(5-Chloropyrid-3-yl)-2-oxoethyl]-2-(1S,4S)-2-oxa-5-azabicyclo[2.2.1]hept-5-yl-8-trifluoromethyl-6,7,8,9-tetrahydropyrimido[1,2-a]pyrimidin-4-one]?
A: IC50 [1]: > 10000 nM; IC50 [2, 3]: 106 nM

Q: With COc1ccc(C(=O)CN2c3nc(N4C[C@@H]5C[C@H]4CO5)cc(=O)n3CC[C@H]2C(F)(F)F)cn1 [Compound 45, (8S)-9-[2-(6-methoxypyrid-3-yl)-2-oxoethyl]-2-(1S,4S)-2-oxa-5-azabicyclo[2.2.1]hept-5-yl-8-trifluoromethyl-6,7,8,9-tetrahydropyrimido[1,2-a]pyrimidin-4-one] as the molecule, how does the IC50 [1] read?
A: > 10000 nM

Q: What about the IC50 [2, 3] of the same molecule?
A: 112 nM

Q: Which results are given for Cc1nocc1C(=O)CN1c2nc(N3C[C@@H]4C[C@H]3CO4)cc(=O)n2CC[C@H]1C(F)(F)F [Compound 46, (8S)-9-[2-(3-Methylisoxazol-4-yl)-2-oxoethyl]-2-(1S,4S)-2-oxa-5-azabicyclo[2.2.1]hept-5-yl-8-trifluoromethyl-6,7,8,9-tetrahydropyrimido[1,2-a]pyrimidin-4-one]?
A: IC50 [1]: > 10000 nM; IC50 [2, 3]: 398 nM

Q: Which results are given for O=C(CN1c2nc(N3C[C@@H]4C[C@H]3CO4)cc(=O)n2CC[C@H]1C(F)(F)F)c1ccc2snnc2c1 [Compound 47, (8S)-9-(2-benzo[1,2,3]thiadiazol-5-yl-2-oxoethyl)-2-(1S,4S)-2-oxa-5-azabicyclo[2.2.1]hept-5-yl-8-trifluoromethyl-6,7,8,9-tetrahydropyrimido[1,2-a]pyrimidin-4-one]?
A: IC50 [1]: > 10000 nM; IC50 [2, 3]: 13 nM
